Patent publication US20080038386A1, “Use of a liquid cooling sensate to provide a pungent, warming or tingling sensate composition” (priority 2006, published 2008)

What was measured:
[1] = Sensory panel: pungency enhancement of a hot chile pepper sauce; assay type: in vivo
Source text: For this type evaluation, a panel consisting of both professional flavorists and other individuals with sensory testing experience was employed. In each tasting session two samples were presented to the panelists in a randomized order to avoid presentation order effect. Panelists were asked to rate the samples as same or different. If different, panelists were asked to rate the “pungent, hotness (warming) or tingling” intensity and to describe the flavor profile as compared to a control sample without the eutectic cooling mixture.
A commercial hot chile pepper sauce derived from Capsicum frutescens var. tabasco (Tabasco® brand) (whose primary pungent principles are the amides capsaicin and dihydrocapsaicin) was diluted to 5% strength in water (the control). […] The control sample was the 5% strength hot chile pepper sauce. […] The degree of hotness (warmth) and pungency profile enhancement was judged to be 25-35%.

[2] = 30 ppm in sucrose solution; cited from earlier work

Compound: CCNC(=O)C1CC(C)CCC1C(C)C (stereo not drawn) [WS-3, N-Ethyl-p-menthane-3-carboxamide]
- accompanying sensory effect noted by panelists ([1]; 28 ppm in 5% strength hot chile pepper sauce, especially in the back of the throat): unpleasant irritating-scratchy effect
- sensory balance accompanying the pungency enhancement ([1]; capsaicin containing products (summary statement)): unbalanced scratchy-irritating and distorted sensory impression

Compound: C/C=C/C=C\CC/C=C/C(=O)NCC(C)C [spilanthol, 2E,6Z,8E-decatrienoic acid-N-isobutylamide]
- sensory description [2]: tingling & mouth watering
